US9550742B2, “11-OXO-10,11-dihydrodibenzo[B,F][1,4]thiazepine S-oxide derivatives and their use as dopamine D2 receptor antagonists” (The United States of America, as Represented by the …, priority 2013, dated 2017)
Where two headings read alike, the source gives them in different places.

Columns and labels:
D2 GPCR receptor (DAR) = molecular target: T1, D2 GPCR receptor (DAR) (Homo sapiens, UniProt P14416); test: D2 beta-arrestin functional assay (PathHunter, CHO); assay type: cell-based; settings: for D3/D2 beta-arrestin IC50ratio: ratio of D3 (Example 4) to D2 (Example 2) beta arrestin assay
T1 construct: host or cells: CHO PathHunter β-arrestin cells
T1 sequence (P14416 whole entry): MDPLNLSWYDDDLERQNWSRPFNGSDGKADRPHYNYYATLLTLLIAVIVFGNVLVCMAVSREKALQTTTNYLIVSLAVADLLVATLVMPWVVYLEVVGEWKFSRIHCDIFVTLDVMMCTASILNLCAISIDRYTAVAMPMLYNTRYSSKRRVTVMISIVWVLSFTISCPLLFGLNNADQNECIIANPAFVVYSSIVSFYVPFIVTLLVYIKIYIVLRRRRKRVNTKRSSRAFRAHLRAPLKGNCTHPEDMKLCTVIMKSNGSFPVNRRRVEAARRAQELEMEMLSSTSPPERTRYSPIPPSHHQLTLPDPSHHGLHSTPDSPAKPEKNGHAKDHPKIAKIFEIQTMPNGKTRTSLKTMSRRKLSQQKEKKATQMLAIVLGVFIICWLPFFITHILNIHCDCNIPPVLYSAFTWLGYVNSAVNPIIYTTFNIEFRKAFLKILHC
Source text: For a secondary-screen and selectivity assays, DAR PathHunter® β-arrestin GPCR cell lines from DiscoveRx (Fremont, Calif.). In this) were used. In the D2 Receptor PathHunter® β-arrestin GPCR cell line, the D2 GPCR receptor (DAR) is overexpressed and fused with a small 42-amino acid fragment of β-galactosidase called ProLink™ on a CHO cellular background expressing a fusion protein of β-arrestin and a larger N-terminal deletion mutant of β-galactosidase (“enzyme acceptor”). When DAR is activated by dopamine, it stimulates binding of β-arrestin to the ProLink-tagged DAR and the two complementary parts of β-galactosidase form a functional enzyme. When substrate (PathHunter® Detection reagent) is added, β-galactosidase hydrolyzes it and generates a chemiluminescent signal.
D2 Receptor PathHunter® β-arrestin cells were seeded at 2,100 cells/well in 3 μL/well media (DiscoveRx Plating Reagent 2) with MultiDrop Combi dispenser (Thermo Scientific, Logan, Utah) onto white tissue culture treated 1,536-well Aurora plates (Brooks Automation, Chelmsford, Mass.) and allowed to attach overnight at 37° C., 5% CO2. Next, 23 nL/well of compound solutions in DMSO were added with a pintool transfer (Kalypsis, San Diego, Calif.). The cells were stimulated by compounds for 90 min at 37° C., 5% CO2, after which 1.5 μL/well of DiscoveRx detection reagent was added with BioRAPTR FRD dispenser. The detection reagent was prepared by mixing of Galacton Star Substrate, Emerald II solution and PathHunter buffer (supplied by the assay kit) together at a 1:5:19 proportion just prior to dispensing. The plates were incubated at ambient temperature for 1 hr, and the luminescent signal was read on a ViewLux plate reader (PerkinElmer, Waltham, Mass.).

D2 DAR = molecular target: T2, D2 DAR (Homo sapiens, UniProt P14416); test: D2 Ca^2+ screen assay (calcium accumulation, HEK293 T-REx with Gqi5); assay type: cell-based
T2 construct: expressed in transfected cells; host or cells: HEK293 T-REx, Tet-inducible, with chimeric G-protein Gqi5
T2 sequence (P14416 whole entry): as above
Description: The resting concentration of calcium ions (Ca^2+) in the cells' cytoplasm is normally maintained in the range of 10-100 nM. To maintain this low concentration, Ca^2+ is actively pumped from the cytosol to the extracellular space and into the endoplasmic reticulum (ER), and sometimes into the mitochondria. Signaling occurs when the cell is stimulated to release Ca^2+ from intracellular stores. The most common signaling pathway that increases cytoplasmic calcium concentration is the phospholipase C (PLC) pathway. […] IP3 diffuses to the ER, binds to its receptor (IP3 receptor), which is a Ca^2+ channel and, thus, releases Ca^2+ from the ER to the cytosol. To measure this cytosolic Ca^2+ accumulation, we used the Screen Quest™ Fluo-8 Calcium Assay Kit (AAT Bioquest, Sunnyvale, Calif.). Acetoxymethyl (AM) esters bound to Fluo-8™ dye are non-polar molecules that easily cross live cell membranes transporting the dye inside the cell, and are then rapidly hydrolyzed by cellular esterases inside live cells. As Fluo-8™ is freed from AM esters, it binds to Ca^2+ and emits a fluorescent signal at 514 nm that escalates with increasing cytosolic Ca^2±. To measure this calcium flux signal, we used the Functional Drug Screening System (FDSS) (Hamamatsu, Japan), a high throughput screening device that allows optical detection of signal transmissions within living cells in a time-resolving fashion. […] Quest Fluo-8™ calcium reagent was freshly prepared prior to adding to the cells (lyophilized Fluo-8™ dye provided with the kit was re-suspended in 200 μL DMSO as a 500× stock and stored at −20° C.). 2 μL/well of Quest Fluo-8™ calcium dye diluted in HBSS +10 mM HEPES buffer (for every 10 mL buffer, 1 mL of 10× quencher provided in the kit and 20 μL of 500×DMSO stock dye were added) was added to cells with a Multi-Drop Combi (ThermoScientific) and incubated for 45-90 min in the dark at ambient temperature. Then, the plates were introduced into the FDSS where they were pinned with 23 nL of test compound or dopamine controls and were read by FDSS in non-stimulated mode for 180 sec for detection of agonists. […]

[1] = molecular target: D2L human dopamine receptors (Homo sapiens, UniProt P14416); test: D2 binding assay ([^3H]methylspiperone, HEK membranes); settings: for D3/D2 binding Ki ratio: ratio of D3 (Example 5) to D2 (Example 3) binding assay
D2L human dopamine receptors, sequence (P14416 whole entry): as above
Description: Compounds were tested for differences in affinity between three dopamine receptor subtypes using radio-labeled ligand binding assays. The first assay determined the Ki value of the compounds for the D2 DAR subtype using stable HEK cell lines expressing the D2L human dopamine receptors (Codex Biosciences, Gaithersburg, Md.). Cells were cultured in Dulbecco's modified Eagle's Medium containing 10% FBS, 1,000 units/mL Penicillin, 1,000 mg/mL Streptomycin, 100 mM Sodium Pyruvate, 1 μg/mL Gentamicin, and […] G418. All cells were maintained at 37° C. in 5% CO2 and 90% humidity. For radioligand binding assays, cells were removed mechanically using calcium and magnesium-free Earle's Balanced Salt Solution (EBSS(−)). Intact cells were collected by centrifugation and then lysed with 5 mM Tris-HCl and 5 mM MgCl2 at pH 7.4 in a glass homogenizer. Homogenates were centrifuged at 20,000×g for 30 minutes. The membranes were re-suspended in EBSS (pH 7.4) and protein concentration was determined using a Bradford assay according to the manufacturer's recommendations (Bio-Rad). Membranes were diluted to 24 mg/mL. […] Membrane preparations were incubated for 90 min at room temperature with various concentrations of radioligand in a reaction volume of 250 μL EBSS containing 200 mM sodium metabisulfite. Non-specific binding was determined in the presence of 4 μM (+)-butaclamol. Bound ligand was separated from unbound by filtration through GF/C filters using a PerkinElmer cell harvester with ice cold EBSS (4 washes) and quantified on a Top-count (PerkinElmer) after addition of scintillation solution. […] In order to determine the affinity of a given compound for a receptor type, competition-binding assays were performed. […] Reactions were incubated, terminated, and quantified as indicated above.

[2] = molecular target: D3 human dopamine receptors (Homo sapiens, UniProt P35462); test: D3 binding assay ([^3H]methylspiperone, HEK293 membranes)
D3 human dopamine receptors, sequence (P35462 whole entry): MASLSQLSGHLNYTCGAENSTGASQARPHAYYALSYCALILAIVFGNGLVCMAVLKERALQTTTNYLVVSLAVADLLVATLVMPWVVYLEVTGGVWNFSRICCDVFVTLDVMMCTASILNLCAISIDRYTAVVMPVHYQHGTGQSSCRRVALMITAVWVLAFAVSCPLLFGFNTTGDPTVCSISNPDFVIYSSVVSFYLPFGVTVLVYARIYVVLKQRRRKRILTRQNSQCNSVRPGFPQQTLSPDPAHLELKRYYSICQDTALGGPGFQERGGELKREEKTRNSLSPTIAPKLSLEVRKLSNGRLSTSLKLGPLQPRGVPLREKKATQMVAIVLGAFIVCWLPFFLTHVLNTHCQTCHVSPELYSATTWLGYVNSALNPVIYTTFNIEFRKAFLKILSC
Description: Cells were cultured in Dulbecco's modified Eagle's Medium containing 10% FBS, 1,000 units/mL Penicillin, 1,000 mg/mL Streptomycin, 100 mM Sodium Pyruvate, 1 μg/mL Gentamicin, and […] G418. All cells were maintained at 37° C. in 5% CO2 and 90% humidity. For radioligand binding assays, cells were removed mechanically using calcium and magnesium-free Earle's Balanced Salt Solution (EBSS(−)). Intact cells were collected by centrifugation and then lysed with 5 mM Tris-HCl and 5 mM MgCl2 at pH 7.4 in a glass homogenizer. […] Membrane preparations were incubated for 90 min at room temperature with various concentrations of radioligand in a reaction volume of 250 μL EBSS containing 200 mM sodium metabisulfite. […] Bound ligand was separated from unbound by filtration through GF/C filters using a PerkinElmer cell harvester with ice cold EBSS (4 washes) and quantified on a Top-count (PerkinElmer) after addition of scintillation solution. […] In order to determine the affinity of a given compound for a receptor type, competition-binding assays were performed. […] Reactions were incubated, terminated, and quantified as indicated above.

[3] = molecular target: D3 dopamine receptor (DAR) (Homo sapiens, UniProt P35462); test: D3 beta-arrestin functional assay (PathHunter, CHO); assay type: cell-based; settings: dose response curve; read-out: D3 β-arrestin assay AC50
D3 dopamine receptor (DAR), sequence (P35462 whole entry): as above
Source text: A CHO cell line was engineered to overexpress D3 dopamine receptor (DAR) and fused with a small 42-amino acid fragment of β-gal called ProLink™. In addition, these cells stably express a fusion protein of β-arrestin and a larger N-terminal deletion mutant of β-galactosidase (“enzyme acceptor”). When DAR is activated by dopamine, it stimulates binding of β-arrestin to ProLink-tagged DARs, and the two complementary parts of β-galactosidase form a functional enzyme. When substrate (PathHunter® Detection reagent) is added, βgalactosidase hydrolyzes it and generates a chemiluminescent signal.
For the 1,536-well assay, D3 PathHunter® β-arrestin cells were seeded at 2,100 cells/well in 3 μL/well media (DiscoveRx Plating Reagent 2) with MultiDrop Combi dispenser (Thermo Scientific, Logan, Utah) onto white tissue culture treated 1,536-well Aurora plates (Brooks Automation, Chelmsford, Mass.) and allowed to attach overnight at 37° C., 5% CO2. Next, 23 nL/well of compound solutions in DMSO were added with a pintool transfer (Kalypsis, San Diego, Calif.). The cells were stimulated by compounds for 90 minutes at 37° C., 5% CO2, after which 1.5 μL/well of DiscoveRx detection reagent was added with BioRAPTR FRD dispenser. […] The plates were incubated at ambient temperature for 1 h, and the luminescent signal was read on ViewLux plate reader (PerkinElmer, Waltham, Mass.).

[4] = dopamine D2 calcium release assay of Example 1, read-out: Ca^2+ AC50

Row | Compound | D3/D2 beta-arrestin IC50ratio (D2 GPCR receptor (DAR)) | AC50 (D2 DAR; [4]) [µM] | D3/D2 binding Ki ratio [1] | AC50 (D2 GPCR receptor (DAR); dose response curve, read-out: D2 β-arrestin assay AC50) [µM] | AC50 (D2 DAR; dose response curve, read-out: D2 Ca^2+ assay AC50) [µM] | Ki [1] [µM] | Ki [2] [µM] | AC50 [3] [µM]
1 | CN1C(=O)c2ccccc2[S+]([O-])c2ccc(C(=O)NCCc3cccs3)cc21 (racemic) [Compound 32, 10-Methyl-11-oxo-N-(2-(thiophen-2-yl)ethyl)-10,11-dihydrodibenzo[b,f][1,4]thiazepine-8-carboxamide 5-oxide] | 22.3 | < 1 | 28.7 |  |  |  |  | 
2 | CCN1C(=O)c2ccccc2[S@+]([O-])c2ccc(C(=O)NCc3ccc(OC)cc3)cc21 [Compound 38, 10-Ethyl-N-(4-methoxybenzyl)-11-oxo-10,11-dihydrodibenzo[b,f][1,4]thiazepine-8-carboxamide 5-(S)-oxide] | 2.5 | < 1 |  |  |  |  |  | 
3 | CCN1C(=O)c2ccccc2[S@+]([O-])c2ccc(C(=O)NCc3ccc(F)cc3)cc21 [Compound 47, 10-Ethyl-N-(4-fluorobenzyl)-11-oxo-10,11-dihydrodibenzo[b,f][1,4]thiazepine-8-carboxamide 5-(S)-oxide] | 5.6 | < 1 | 2.6 |  |  |  |  | 
4 | CCN1C(=O)c2ccccc2[S@+]([O-])c2ccc(C(=O)N[C@H](C)c3ccc(Br)cc3)cc21 [Compound 49, (R)-N-(1-(4-Bromophenyl)ethyl)-10-ethyl-11-oxo-10,11-dihydrodibenzo[b,f][1,4]thiazepine-8-carboxamide 5-(S)-oxide] | 7.1 | < 1 | 1.3 |  |  |  |  | 
5 | CCN1C(=O)c2ccccc2[S@+]([O-])c2ccc(C(=O)N[C@H](C)c3ccc4ccccc4c3)cc21 [Compound 50, (R)-10-Ethyl-N-(1-(naphthalen-2-yl)ethyl)-11-oxo-10,11-dihydrodibenzo[b,f][1,4]thiazepine-8-carboxamide 5-(S)-oxide] | 11.2 | < 1 | 16.2 |  |  |  |  | 
6 | CN1C(=O)c2ccccc2[S@+]([O-])c2ccc(C(=O)NCc3ccc(Cl)cc3)cc21 [Compound 51, N-(4-Chlorobenzyl)-10-methyl-11-oxo-10,11-dihydrodibenzo[b,f][1,4]thiazepine-8-carboxamide 5-(S)-oxide] | 4.5 | < 1 |  |  |  |  |  | 
7 | CN1C(=O)c2ccccc2[S@+]([O-])c2ccc(C(=O)NCc3cccnc3)cc21 [Compound 53, 10-Methyl-11-oxo-N-(pyridin-3-ylmethyl)-10,11-dihydrodibenzo[b,f][1,4]thiazepine-8-carboxamide 5-(S)-oxide] | 5.0 | < 1 | 70.0 |  |  |  |  | 

The next lines start with the values.

Row | D3/D2 beta-arrestin IC50ratio (D2 GPCR receptor (DAR)) | AC50 (D2 DAR; [4]) [µM] | D3/D2 binding Ki ratio [1] | AC50 (D2 GPCR receptor (DAR); dose response curve, read-out: D2 β-arrestin assay AC50) [µM] | AC50 (D2 DAR; dose response curve, read-out: D2 Ca^2+ assay AC50) [µM] | Ki [1] [µM] | Ki [2] [µM] | AC50 [3] [µM] | Compound
8 | 2.0 | < 1 | 6.0 | 2.89 | 0.281 | 0.08 | 0.48 | 5.76 | CCN1C(=O)c2ccccc2[S+]([O-])c2ccc(C(=O)NCc3ccc(OC)cc3)cc21 (stereo not drawn) [Compound 1, 10-Ethyl-N-(4-methoxybenzyl)-11-oxo-10,11-dihydrodibenzo[b,f][1,4]thiazepine-8-carboxamide 5-oxide]
9 | 6.3 | < 1 | 5.7 |  |  |  |  |  | CCN1C(=O)c2ccccc2[S@+]([O-])c2ccc(C(=O)NCc3ccc(C#N)cc3)cc21 [Compound 48, N-(4-Cyanobenzyl)-10-ethyl-11-oxo-10,11-dihydrodibenzo[b,f][1,4]thiazepine-8-carboxamide 5-(S)-oxide]
10 | 4.6 | < 1 | 1.5 |  |  |  |  |  | CN1C(=O)c2ccccc2[S@+]([O-])c2ccc(C(=O)NCc3ccc(Br)cc3)cc21 [Compound 52, N-(4-bromobenzyl)-10-methyl-11-oxo-10,11-dihydrodibenzo[b,f][1,4]thiazepine-8-carboxamide 5-(S)-oxide]
11 | 7.2 | < 1 | 1.7 |  |  |  |  |  | CN1C(=O)c2ccccc2[S@+]([O-])c2ccc(C(=O)NCCN3CCCC3)cc21 [Compound 54, 10-Methyl-11-oxo-N-(2-(pyrrolidin-1-yl)ethyl)-10,11-dihydrodibenzo[b,f][1,4]thiazepine-8-carboxamide 5-(S)-oxide]
